The text below walks through data of US10463716B2 (UNIVERSITY OF MARYLAND, BALTIMORE, priority 2014, dated 2019).

One data set relates to APJ. Nature of the data set: qPCR of APJ mRNA in mice infused with ELA. It counts as in vivo, mouse. In general terms: Real-time PCR tracks product formation cycle by cycle.
The subject of a further data set is C57/BL6 mice. Nature of the data set: Diuresis in anesthetized mice. It counts as in vivo, mouse. As to conditions: 200 nmol/kg intravenously, one hour collection vs baseline hour. From the text:
Four male C57/BL6 mice aged from 10 to 12 weeks were anesthetized with pentobarbital and then placed on a heated table to maintain body temperature and tracheotomized. Catheters were inserted into the external jugular veins for infusing normal saline to replace fluid loss and anesthesia, and into carotid artery for measuring blood pressure and heart rates. Urine was collected via a suprapubic cystostomy (PE-50-flanged end). After a 30-min stabilization period, urine was collected for a period of one hour as a baseline volume.

Data set [1] deals with human pluripotent stem cells (PSCs). In words: Cardiomyocyte differentiation from pluripotent stem cells. The class given is cell-based. To be noted: data not shown. The source says: The question of whether ELA-APJ promotes human pluripotent stem cells (PSCs) into mesoderm derivatives including mesenchymal stem cells, adipocytes and cardiomyocytes was studied. […] Without being bound by theory, the kidney is a crucial organ that maintains circulation homeostasis.

The subject of data set [2] is empty vector control CHO-K 1 cells. Nature of the data set: Parallel control experiments (cAMP, ERK, calcium) in empty vector cells. The class given is cell-based, Chinese hamster. As to conditions: cells transduced with empty vector control viruses. From the text:
Activation of APJ is known to result in a decrease of cAMP production, stimulation of ERK and increase in intercellular calcium mobilization (13). […] APJ-over-expressing and empty vector control CHO-K 1 cells were used in the studies. APJ expression was confirmed by RT-PCR. […] The response was dose-dependent up to the concentration of 10^−5M (FIG. 3C, lower panel).

The next data set concerns Sprague-Dawley rats. Nature of the data set: MI-induced heart failure by coronary artery ligation in rats, Fc-ELA-32. It counts as in vivo, rat. The method, then:
It was studied whether Fc-ELA fusion proteins have cardioprotective activities in heart failure caused by myocardial infarction (MI) in rats. MI was inflicted by standard left anterior descending coronary artery ligation (CAL) in Sprague-Dawley rats (8-weeks old, male). One week post-operation, recombined Fc-ELA-32 protein was administrated by subcutaneous injection at the dosage of 300 μg/kg bodyweight/day for two weeks. Phosphate-buffered saline (PBS) was used as the control. One week after the administration or at the end of the four weeks of MI, cardiac performance was evaluated by a pressure transducer which was inserted retrograde from the right carotid artery to the left ventricle cavity. Heart tissue samples were taken and fixed with 4% paraformaldehyde for 24 hours and then embedded in paraffin and sectioned for histopathologic examination.
Apoptosis was assessed by terminal deoxynucleotidyl transferase-mediated dUTP nick end labeling (TUNEL) and caspase-3 activity assay. […] TUNEL-positive nuclei in the LV free wall were counted within a 4-mm^2 square of field. […]
Masson staining which specifically stains collagens in blue was conducted on tissue sections of the infarcted heart area. Collagen volume fraction (CVF) is calculated by dividing of the blue stained area, which scattered between the surviving myocytes and around the blood vessels by the total area. […]

In data set [3] the test system is aldosterone synthase CYP11B2. In words: Ang II-induced aldosterone synthase gene expression (qPCR) in HAC15 cells. It counts as cell-based, human. As to conditions: ELA 50 nM, Ang II 10 nM, 47 hours.
The conditions of data set [4]: mature ELA hormone; cited from earlier work.
A further data set concerns HUVECs. Nature of the data set: In vitro angiogenesis (tube formation) assay. The class given is cell-based, human. The method, then: Tube formation assay for angiogenesis was conducted in 24-well plates were coated with 50 μl of Geltrex (Life Technologies, A14133-02) and left for polymerization by incubation for 1 hour at 37° C. […] Quantification of tube formation was performed after 10 hours of culture by calculating the number of branching point formed in each well under an inverted phase contrast photomicroscope (Olympus IX5O) as described^37.
ELA is a secreted hormone and expressed in adult kidney and prostate, and may, therefore, circulate in blood. […] Vascular tube formation assay is a well-used in vitro study to assess angiogenic factors and conditions in which vascular cells, e.g., human umbilical […] endothelial cells (HUVECs), can form tube-like structures under proangiogenic conditions in culture wells coated with Geltrex containing extra-cellular matrix. The number of branch points was an indicator of the strength of angiogenic stimuli.

The subject of another data set is mouse aortic rings. In words: Endothelium-dependent and -independent vasorelaxation of aortic rings. As to conditions: for decrease of relaxation by removal of endothelium: denuded vs endothelium-intact vessels. As to the method: Aortas were isolated from 8-10 weeks male wild-type C57BL/6 mice, cut into 3-mm rings and mounted in organ chambers (PowerLab, AD Instruments, CO, USA) in Kreb's buffer as described previously (11, 12). The contractile response was elicited by vasoconstrictor U46619 (30 nM) to produce contraction. […] In some preparations, the endothelium was mechanically removed from denuded arteries by gentle rubbing off the intimal surface with a wooden stick.
Apelin is reported to relax vascular tone (14) and lower blood pressure. […] The aortic rings were induced to contraction with vasoconstrictor U46619 (final concentration, 30 nM).
To further determine whether nitric oxide (NO) participated in the relaxation, the blood vessels were pretreated with L-NAME, an NO production inhibitor. […] The effect of apelin-13 on blood vessels was studied in parallel for comparison.

The test system of the next data set is C57/BL mice. In words: MI-induced heart failure by coronary artery ligation, echocardiography. It counts as in vivo, mouse. The method, then: C57/BL wild type mice at age of 14-16 months old were used. Mice were subjected to either MI by permanent ligation or sham treatment with a loose suture of the proximal left anterior descending (LAD) coronary artery under general anesthesia by 2% isoflurane inhalation, and mechanical ventilation via oral intubation. Left thoracotomy in the 3-4 intercostal space was performed and the pericardium was opened to expose the LV and the LAD. The artery was circled a 8-0 silk suture, and then either ligated permanently or remained loose (sham).
Twelve to 14 mice were used in each group.
Data were calculated with the accepted formulae, which have been validated in mice.
Coronary artery ligation (CAL) is a well-used procedure to create a mouse model of acute myocardial infarction (MI) and heart failure (HF). […] Echocardiography was conducted to access heart function before the procedure (baseline), and at 1 week and 5 weeks post-MI.

The next data set concerns human cardiomyocytes. In words: Hypoxia-induced apoptosis (TUNEL) in cardiomyocytes from human pluripotent stem cells. The class given is cell-based. As to conditions: ELA 0.5 μM. The source says: Cellular mechanisms of cardioprotection in MI include the less cell death due to necrosis and apopotosis, increased angiogenesis and reduced fibrosis. […] Apelin is reported to protect against glucose deprivation-induced apoptosis in rat neonatal cardiomyocytes and to increase Akt and mTOR phosphorylation.

Where [5] appears, read: endothelium-intact vessels, contracted with U46619 30 nM.

As for `CSCC[C@H](NC(=O)[C@@H](NC(=O)[C@H](CC(C)C)NC(=O)[C@H](CC(N)=O)NC(=O)[C@@H](NC(=O)[C@@H]1CCCN1C(=O)[C@H](CCCNC(=N)N)NC(=O)[C@@H](N)CCC(N)=O)C(C)C)[C@@H](C)O)C(=O)N[C@@H](CCCNC(=N)N)C(=O)N[C@@H](CCCNC(=N)N)C(=O)N[C@@H](CCCCN)C(=O)N[C@@H](CC(C)C)C(=O)N[C@@H](CCCNC(=N)N)C(=O)N[C@@H](CCCCN)C(=O)N[C@@H](Cc1c[nH]cn1)C(=O)N[C@@H](CC(N)=O)C(=O)N[C@H]1CSSC[C@@H](C(=O)N[C@@H](CCSC)C(=O)N2CCC[C@H]2C(=O)N[C@@H](CC(C)C)C(=O)N[C@@H](Cc2c[nH]cn2)C(=O)N[C@@H](CO)C(=O)N[C@@H](CCCNC(=N)N)C(=O)N[C@H](C(=O)N2CCC[C@H]2C(=O)N[C@@H](Cc2ccccc2)C(=O)N2CCC[C@H]2C(=O)O)C(C)C)NC(=O)[C@H](CCCNC(=N)N)NC(=O)[C@H](CCCNC(=N)N)NC(=O)[C@H](CCC(N)=O)NC(=O)[C@H](CC(C)C)NC1=O` [ELA, Elabela], the “APJ mRNA expression” value in the data set with APJ is recorded as “tended to decrease”. Besides, the urine volume result with C57/BL6 mice is given as “increased by about one fold”. In addition, the “cardiomyocyte differentiation from PSCs” value in data set [1] is “potent inducer of cardiomyocyte differentiation”. Further, the “changes in cAMP, ERK ½ and calcium assays in empty vector control cells” value in data set [2] is given as “no meaningful changes”. Further, the “TUNEL green-labeled apoptotic cells in heart sections” value in the data set on Sprague-Dawley rats was “much less green-labeled cells”. Further, in data set [3], the “Ang II-induced gene expression of aldosterone synthase” value is “significantly suppressed”. In addition, the isoelectric point entry in data set [4] was “exceeding 12”. For the same molecule, the “formation of tubular structures” value with HUVECs (APJ-knock down HUVECs) is listed as “not effective”. Further, the “increase in number of branch points” value in the data set on HUVECs (ELA 0.1 μM) is recorded as 71.9%. Further, the “increase in number of branch points” value in the data set with HUVECs (ELA 0.5 μM) was 222.8%. Besides, the “increase in number of branch points” value in the data set with HUVECs (ELA 1 μM) amounted to 266.7%. In addition, in the data set on mouse aortic rings, the “decrease of relaxation by removal of endothelium” value is “about 20%”. The maximum relaxation in the data set with mouse aortic rings (setting [5]) was determined as 73.7%. In addition, the “relaxation, L-NAME-treated vs none-treated vessels” value with mouse aortic rings (pretreated with 1 mM L-NAME) was “No significant difference”. In the data set with C57/BL mice (MI mice, ELA group, Baseline), the FS_LVD is 29.65 ± 4.16%, the FS_LVPW came to 30.36 ± 3.65%, the IVSd is listed as 0.61 ± 0.05 mm and the IVSs was determined as 0.99 ± 0.04 mm. In the data set on C57/BL mice (MI mice, ELA group, Baseline), the LVDd was 3.87 ± 0.20 mm, the LVDs came to 2.68 ± 0.11 mm, the LVEF is 61.84 ± 7.39% and the LVPWd is on record as 0.70 ± 0.03 mm. Further, in the data set on C57/BL mice (MI mice, ELA group, Baseline), the LVPWs came out at 1.01 ± 0.04 mm. In the data set with C57/BL mice (MI mice, ELA infusion, Week 5), this molecule returned an FS_LVD of 22.68 ± 1.21 %, an FS_LVPW of 22.46 ± 4.49%, an IVSd of 0.73 ± 0.07 mm and an IVSs of 0.96 ± 0.11 mm. In the data set on C57/BL mice (MI mice, ELA infusion, Week 5), this molecule returned an LVDd of 4.48 ± 0.17 mm, an LVDs of 3.47 ± 0.16 mm, an LVEF of 45.65 ± 2.16 % and an LVPWd of 0.75 ± 0.05 mm. The same molecule had an LVPWs in the data set on C57/BL mice (MI mice, ELA infusion, Week 5) of 0.97 ± 0.04 mm. Besides, in the data set on C57/BL mice (MI mice, ELA vs vehicle), the “degree of left ventricular dilation and contractile dysfunction” value is on record as “significantly mitigated”. Further, the “mice died during the experimental period” value in the data set with C57/BL mice (MI mice, one-month experimental period, control three of nine) is “one of eight”. In addition, in the data set with C57/BL mice (sham op mice), the “heart performance in sham op animals, vehicle vs ELA” value is reported as “no statistical difference”. The “number of TUNEL-stained cells” value with human cardiomyocytes is recorded as “significantly reduced”.
In the case of apelin-13 [reference compound], the maximum relaxation came to 31% in the data set with mouse aortic rings (denuded (endothelium removed) vessels) and 79% in the data set on mouse aortic rings (setting [5]). Moreover, the “decrease of relaxation by removal of endothelium” value with mouse aortic rings stood at 48%.
